According to patent US20120009124A1, “USE OF BUFFERS FOR RADIONUCLIDE COMPLEXATION” (GUERBET, priority 2009, published 2012):
Where two headings read alike, the source gives them in different places. Where a SMILES comes first, the peptide text is derived from it. [ ]: non-standard residue; d: D form.

Experiments:
[1] = Source text: It is also possible to combine several buffers in combination (buffer mixtures) in particular so as to optimize the buffering capacity ranges and the choice of the chelates and of the biovectors, it being specified that not all chelates necessarily have the same complexation, depending on the buffer under consideration.
CXCR4 = CXCR4 (Homo sapiens, UniProt P61073); assay: IC50 of cyclic peptides for targeting CXCR4; type: binding; conditions: peptide biovectors for targeting CXCR4
Sequence of CXCR4 (P61073 whole entry, species assumed): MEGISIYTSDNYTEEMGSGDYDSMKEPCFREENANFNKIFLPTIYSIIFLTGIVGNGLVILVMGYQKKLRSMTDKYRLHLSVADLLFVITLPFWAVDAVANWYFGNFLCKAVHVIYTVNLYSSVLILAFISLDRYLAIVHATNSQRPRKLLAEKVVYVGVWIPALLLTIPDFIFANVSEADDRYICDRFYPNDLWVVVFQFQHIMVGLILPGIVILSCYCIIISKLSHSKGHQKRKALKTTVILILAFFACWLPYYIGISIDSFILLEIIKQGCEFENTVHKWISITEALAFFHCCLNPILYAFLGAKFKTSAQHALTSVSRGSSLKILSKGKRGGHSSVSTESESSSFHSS

Row | IC50 (CXCR4) [nM] | Molecule | buffering capacity (pKa value +/-1) [1] | other results
1 | 18 | N=C(N)NCCC[C@@H]1NC(=O)[C@H](CCCNC(=N)N)NC(=O)[C@@H](Cc2ccc(O)cc2)NC(=O)CNC(=O)[C@H](Cc2nc3ccccc3s2)NC1=O [Bth] |  | 
2 | 13 | N=C(N)NCCC[C@@H]1NC(=O)[C@H](CCCNC(=N)N)NC(=O)[C@@H](Cc2ccc(O)cc2)NC(=O)CNC(=O)[C@H](Cc2c[nH]c3ccccc23)NC1=O [Trp] (cyclo([dY]RRWG)) |  | 

The next lines start with the molecule.

Row | Molecule | IC50 (CXCR4) [nM] | buffering capacity (pKa value +/-1) [1] | other results
3 | O=C(O)C(O)C(O)C(=O)O (centres unmarked) [tartrate] |  | 2.04-5.37 | 
4 | O=C(O)O [carbonate] |  |  | buffering capacity (pKa value +/-1) ([1]; pH range): 5.35-11.33
5 | phosphate |  | 1.12-13.67 | 
